The text below walks through data of publication PMC11249626, “Fluorophore-Labeled Pyrrolones Targeting the Intracellular Allosteric Binding Site of the Chemokine Receptor CCR1” (ACS Pharmacology & Translational Science, 2024).

What is called Kd is the concentration at which binding is half-saturated. The Ki is a measure of affinity in units of concentration, obtained from inhibition or displacement.

Experiment [1] has as its target T1, CCR2 (Homo sapiens, UniProt P41597).
T1 construct: host or cells: HEK293T, transient
T1 sequence (P41597 1-360 isoform P41597-2): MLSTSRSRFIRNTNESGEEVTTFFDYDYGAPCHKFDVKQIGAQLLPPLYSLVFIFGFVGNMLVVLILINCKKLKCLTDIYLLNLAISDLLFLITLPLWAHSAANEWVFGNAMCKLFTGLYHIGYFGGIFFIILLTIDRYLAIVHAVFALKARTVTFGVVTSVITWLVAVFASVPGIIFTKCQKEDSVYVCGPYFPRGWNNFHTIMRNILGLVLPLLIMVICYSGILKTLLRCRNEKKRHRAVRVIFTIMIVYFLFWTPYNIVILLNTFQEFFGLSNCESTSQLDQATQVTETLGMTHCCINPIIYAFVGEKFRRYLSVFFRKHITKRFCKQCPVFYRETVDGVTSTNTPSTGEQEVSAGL
The arrangement: method as in PMID 35838163. Particulars: membrane-based setup; cited from earlier work.

Experiment [2] addresses T2, CCR1 (Homo sapiens, UniProt P32246).
T2 sequence (P32246 1-355): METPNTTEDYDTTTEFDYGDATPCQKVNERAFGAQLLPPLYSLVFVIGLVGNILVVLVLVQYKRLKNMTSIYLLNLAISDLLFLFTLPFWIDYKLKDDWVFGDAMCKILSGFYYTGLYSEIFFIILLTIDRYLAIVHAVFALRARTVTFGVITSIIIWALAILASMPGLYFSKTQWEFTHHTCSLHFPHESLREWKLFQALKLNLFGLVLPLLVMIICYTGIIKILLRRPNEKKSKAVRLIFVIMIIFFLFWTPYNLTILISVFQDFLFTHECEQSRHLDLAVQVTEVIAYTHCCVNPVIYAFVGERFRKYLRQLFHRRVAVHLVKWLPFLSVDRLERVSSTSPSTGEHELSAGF
Put plainly: Membrane-based NanoBRET saturation binding assay, CCR1_Nluc membranes from HEK293T cells. Further details: Promega pNLF1-C (Nluc) #CCR010TN00; host or cells: HEK293T, transient (PEI). Particulars: saturation binding of fluorescent ligand, read-out: KD (equilibrium, KD(eq.)). The text has this:
To evaluate the CCR1 affinity of previously reported (8–9) and new fluorescently labeled pyrrolones (11–12), we developed a NanoBRET-based binding assay (Figures 4A–H and S2A–J). To this end, we used a previously reported CCR1 construct (hereafter referred to as CCR1_Nluc) with a small and bright luciferase variant (nanoluciferase,[52] Nluc), fused to the intracellular C-terminus of CCR1 (Figures 4A and S2A).[47] […] This was expected, given the very low CCR2/CCR1 selectivity of the parental ligands 4 and 5 (Figure 1).[33] For further studies, we selected 12 due to its highest CCR1 affinity.
Cell culture: HEK293T cells were cultured as previously described.8 In brief, HEK293T cells (gift from Chair of Physiology, Prof. Dr. Alzheimer, FAU Erlangen-Nürnberg) were grown on 10 cm culture dishes at 37 °C and 5% CO2. As growth medium, Dulbecco's Modified Eagle Medium (DMEM)/F12 (Invitrogen) supplemented with 10% fetal bovine serum (FBS, Gibco™ Fetal Bovine Serum, qualified, Brazil), L-glutamine (final concentration: 2 mM; from Gibco™ L-glutamine 200 mM, 100X), penicillin (final concentration: 100 units/mL), and streptomycin (final concentration: 100 µg/mL; from Gibco™ Penicillin-Streptomycin 10,000 U/mL) was used. Cells were split every three to four days and regularly confirmed to be free of mycoplasma contamination using the luminescence-based MycoAlert Plus Kit (Lonza).
Transient transfection using polyethylenimine: For transfection, we used a previously published procedure.8 In brief, HEK293T cells were plated onto culture dishes (Ø 10 cm or Ø 15 cm) and grown to a confluence of approximately 50% at 37 °C and 5% CO2. The growth medium was renewed one-hour before transfection. The transfection mix was prepared, as described in the following. Solution A (0.4-2.2% total DNA (1-5.5 µg) in Gibco™ phosphate buffered saline, pH 7.4) and solution B (3% PEI (linear, 25 kDa, from Polysciences) solution prepared from a PEI stock solution (0.4 µg/µL) in PBS without MgCl2 and CaCl2) were mixed one to one, the resulting mixture was vortexed for 5 s and incubated for 30 min at room temperature. The pre-incubated transfection mix was added dropwise to the cells and cell cultivation was continued […]
Membrane preparation: Membranes were prepared as previously reported.8 In brief, membranes from HEK293T cells transiently expressing the respective GPCR were prepared as follows. The medium of the transfected cells was refreshed after 24 h before cells were harvested 48 h post-transfection. […]
Finally, the protein concentration was determined using the Lowry method.9 cDNA constructs: The CCR1-Nluc fusion construct (CCR1_Nluc) in pcDNA3.1 was generated as previously reported1 using the Gibson Assembly10 (New England Biolabs) method. […]

Experiment [3] has as its target T2, CCR1. The experiment is described as follows: Live cell NanoBRET binding assay, HEK293T cells expressing CCR1_Nluc. The arrangement: Promega pNLF1-C (Nluc) #CCR010TN00; host or cells: HEK293T, transient (PEI). Particulars: 12 (1000 nM), live HEK293T cells; read-out: Ki, live cells. On the technique in general: BRET reads energy transfer from a luciferase to a nearby fluorophore.

The target of another experiment is T3, CXCR2 (Homo sapiens, UniProt P25025).
T3 construct: host or cells: HEK293T, transient
T3 sequence (P25025 1-360): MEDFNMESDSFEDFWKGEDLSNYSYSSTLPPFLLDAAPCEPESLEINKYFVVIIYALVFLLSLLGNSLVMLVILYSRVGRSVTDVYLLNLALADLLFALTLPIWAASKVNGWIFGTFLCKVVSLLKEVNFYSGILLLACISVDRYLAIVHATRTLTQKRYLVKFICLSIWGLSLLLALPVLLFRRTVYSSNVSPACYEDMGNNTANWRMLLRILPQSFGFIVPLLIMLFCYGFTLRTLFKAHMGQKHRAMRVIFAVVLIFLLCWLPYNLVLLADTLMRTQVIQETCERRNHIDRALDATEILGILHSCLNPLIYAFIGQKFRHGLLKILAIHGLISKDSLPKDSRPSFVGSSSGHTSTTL
The experiment is described as follows: NanoBRET-based assay for binding to the IABS of CXCR2, as previously reported. Particulars: compound at 20 μM; read-out: % inh. of tracer binding, CXCR2. The text has this:
(§1) With 6 (Figure 1), a first lead structure for intracellular CCR1 inhibition that features an approximately 20-fold CCR1 over CCR2 selectivity was previously discovered by Ortiz Zacarías et al.([33]) In order to discover new chemotypes for selective CCR1 over CCR2 inhibition, we aimed to apply our novel NanoBRET competition binding assay for CCR1 in combination with our recently published CCR2 competition binding assay based on 7.[47] In our first attempt, we screened a small in-house library enriched with intracellular GPCR ligands and structural analogues thereof. […] Additionally, we tested 23 for binding to the IABS of CCR9 and CXCR2 using our recently reported NanoBRET-based assay platform (Figure 6C).[44],[45] In the course of these studies, we detected no binding of 23 to CCR9 and CXCR2 up to a concentration of 20 μM. Since cell lineage-dependent effects have been observed for CCR1 antagonists,[59] we studied the CCR1 over CCR2 selectivity of 23 by using a previously reported radioligand binding assay with membrane preparations from osteosarcoma (U2OS) cells stably expressing human CCR1 or CCR2.[33] […] In agreement with these previous reports,[33] we observed a reduction in CCR1 over CCR2 selectivity when moving from membrane-based binding assays to cell-based functional assays. […]

For experiment [4], the target named is T2, CCR1. The experiment is described as follows: Membrane-based NanoBRET competition assay with 12 (2000 nM) and CCR1_Nluc membranes. In kind it is binding. Further details: Promega pNLF1-C (Nluc) #CCR010TN00; host or cells: HEK293T, transient (PEI). Particulars: 12 (2000 nM).
The target in experiment [5] is T1, CCR2. The experiment is described as follows: NanoBRET competition binding assay for CCR2 based on 7, as previously reported. Particulars: compound at 100 μM; read-out: % inh. of tracer binding, CCR2. The text has this:
With 6 (Figure 1), a first lead structure for intracellular CCR1 inhibition that features an approximately 20-fold CCR1 over CCR2 selectivity was previously discovered by Ortiz Zacarías et al.([33]) In order to discover new chemotypes for selective CCR1 over CCR2 inhibition, we aimed to apply our novel NanoBRET competition binding assay for CCR1 in combination with our recently published CCR2 competition binding assay based on 7.[47] In our first attempt, we screened a small in-house library enriched with intracellular GPCR ligands and structural analogues thereof. […] Additionally, we tested 23 for binding to the IABS of CCR9 and CXCR2 using our recently reported NanoBRET-based assay platform (Figure 6C).[44],[45] In the course of these studies, we detected no binding of 23 to CCR9 and CXCR2 up to a concentration of 20 μM. Since cell lineage-dependent effects have been observed for CCR1 antagonists,[59] we studied the CCR1 over CCR2 selectivity of 23 by using a previously reported radioligand binding assay with membrane preparations from osteosarcoma (U2OS) cells stably expressing human CCR1 or CCR2.[33] […] In agreement with these previous reports,[33] we observed a reduction in CCR1 over CCR2 selectivity when moving from membrane-based binding assays to cell-based functional assays. […] To investigate a potential signaling bias of 23, we tested the compound by means of a NanoBiT miniGi recruitment assay.[60] […] Thus, this indicated no strong signaling bias of 23 (Figures S9E and S10C). To elucidate the SAR of this new scaffold for selective CCR1 over CCR2 inhibition, we synthesized several analogues of 23 (24–40) and tested them by means of our NanoBRET competition binding assays (Schemes S2 and S3, Table 1, Figures 6F and S11). First, we aimed to examine the impact of the stereochemistry of 23 on CCR1 affinity. As for the structurally related pyrrolone 4, large differences in CCR2 affinity between the eutomer 4-[R] and the distomer 4-[S] were described.[61] […] Furthermore, we identified the 4-hydroxyphenethyl group at position 1 of the pyrrolone scaffold as highly important for CCR1 affinity and selectivity. Its presence seems to block CCR2 binding, also when combined with the structural features of the high-affinity CCR2 ligand 5, as exemplified by 24. Especially the 4-hydroxy group at this moiety is essential for CCR1 binding (see 25 and 26). […] In position 5 of the pyrrolone, several aromatic and aliphatic substituents were tolerated (see 31–35).

In the next experiment the target is T4, CCR9 (Homo sapiens, UniProt P51686).
T4 construct: host or cells: HEK293T, transient
T4 sequence (P51686 1-369): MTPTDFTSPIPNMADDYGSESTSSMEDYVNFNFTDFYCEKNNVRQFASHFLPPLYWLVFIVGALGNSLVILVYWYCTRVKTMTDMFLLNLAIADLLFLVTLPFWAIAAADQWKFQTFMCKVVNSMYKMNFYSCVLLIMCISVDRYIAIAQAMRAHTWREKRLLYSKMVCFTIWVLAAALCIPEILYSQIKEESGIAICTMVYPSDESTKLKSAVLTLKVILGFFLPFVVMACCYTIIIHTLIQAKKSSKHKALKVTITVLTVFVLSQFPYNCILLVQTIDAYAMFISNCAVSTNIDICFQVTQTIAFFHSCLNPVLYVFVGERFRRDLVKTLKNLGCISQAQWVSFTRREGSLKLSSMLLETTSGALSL
Put plainly: NanoBRET-based assay for binding to the IABS of CCR9, as previously reported. Particulars: compound at 20 μM; read-out: % inh. of tracer binding, CCR9.
Excerpt: as §1

For experiment [6], the target named is T2, CCR1. Further details: Promega pNLF1-C (Nluc) #CCR010TN00; host or cells: HEK293T, transient (PEI); method as in PMID 30256641. Particulars: binding; cited from earlier work.
The target of experiment [7] is T1, CCR2. Further details: method as in PMID 30256641. Particulars: cited from earlier work.

As to `CN(C)c1ccc2c(-c3cc(C(=O)NCc4cn(CCCC(=O)C5=C(O)C(=O)N(c6ccc(Br)cc6F)C5C5CCCCC5)nn4)ccc3C(=O)[O-])c3ccc(=[N+](C)C)cc-3oc2c1` (stereo not drawn) [compound 9], the Kd on CCR2 [1] is 2270 nM; on CCR1 [2], 14900 ± 2100 nM.

Turning to `NC(=O)CSc1nnc(-c2ccc(Cl)cc2)n1C1CCCCC1` [compound 43], the Ki at CCR1 [3] is 1290 nM; on CCR1 [4] (CCR1_Nluc membranes, read-out: Ki, CCR1 (converted)), 357 nM. Further, the inhibition at 20 µM on CXCR2 is 2%; at CCR9, 15%. Further, the “% inh. of tracer binding, CCR1” value on CCR1 [4] (compound at 20 μM) is given as not below 50%. Further, the inhibition at 100 µM at CCR2 [5] was determined as 29%.

In the case of `CN(C)c1ccc2c(-c3cc(C(=O)NCc4cn(CCCC(=O)C5=C(O)C(=O)N(c6ccc(Cl)cc6F)C5C5CCCCC5)nn4)ccc3C(=O)[O-])c3ccc(=[N+](C)C)cc-3oc2c1` (stereo not drawn) [compound 8], the Kd at CCR2 [1] was 2260 nM; on CCR1 [2] it was 11300 ± 800 nM.

`O=C(C1=C(O)C(=O)N(c2ccc(Br)cc2F)C1c1cccc(Br)c1)C1CC1` (stereo not drawn) [compound 6]: the “CCR1 over CCR2 selectivity” value on CCR1 [6] is reported as “approximately 20 fold”. Moreover, the “CCR2, % @ 1 μM” value on CCR2 [7] was 45%.
